Measurements as given in ChEMBL document CHEMBL5550185, “Targeting hTERT Promoter G-Quadruplex DNA Structures with Small-Molecule Ligand to Downregulate hTERT Expression for Triple-Negative Breast Cancer Therapy” (J Med Chem, 2024).
Activity calls are given as the source filed them. The calls are words filed in the database; no cut-off is given here.

How the values were obtained:
DNA [1] = assay: Binding affinity to Ds26 duplex DNA (unknown origin) assessed as change in enthalpy at 400 uM by ITC analysis; format: nucleic-acid assay
Quadruplex DNA [2] = assay: Binding affinity to CKIT-2 G4 DNA (unknown origin) assessed as thermal stability by measuring change in melting temperature at 400 uM […]; format: nucleic-acid assay
Quadruplex DNA [3] = assay: Binding affinity to CKIT-2 G4 DNA (unknown origin) assessed as dissociation constant by ITC analysis; format: nucleic-acid assay
Quadruplex DNA [4] = assay: Binding affinity to c-MYC Pu27 G4 DNA (unknown origin) assessed as thermal stability by measuring change in melting temperature at 400 uM […]; format: nucleic-acid assay
Quadruplex DNA [5] = assay: Binding affinity to c-MYC Pu27 G4 DNA (unknown origin) assessed as change in enthalpy at 400 uM by ITC analysis; format: nucleic-acid assay
Quadruplex DNA [6] = assay: Binding affinity to c-MYC Pu27 G4 DNA (unknown origin) assessed as change in gibbs free energy at 400 uM by ITC analysis; format: nucleic-acid assay
Homo sapiens = species on record: Homo sapiens; assay: Binding affinity to antisense i-hTERT DNA assessed as thermal stability by measuring change in melting temperature at 400 uM […]
[7] = Selectivity ratio of binding affinity to human TERT G4 DNA to binding affinity to VEGF G4 DNA (unknown origin)
[8] = Selectivity ratio of binding affinity to human TERT G4 DNA to binding affinity to RET G4 DNA (unknown origin)
[9] = Selectivity ratio of binding affinity to human TERT G4 DNA to binding affinity to Ckit-2 G4 DNA (unknown origin)
[10] = Selectivity ratio of binding affinity to human TERT G4 DNA to binding affinity to Pu27 G4 DNA (unknown origin)
[11] = Selectivity ratio of binding affinity to human TERT G4 DNA to binding affinity to 4a4t duplex DNA (unknown origin)
[12] = Selectivity ratio of binding affinity to human TERT G4 DNA to binding affinity to Dt21 ssDNA (unknown origin)
DNA [13] = assay: Binding affinity to DNA in telomerase-positive live human MDA-MB-231 cells assessed as reduction in fluorescence at 5 uM preincubated for 10 mins followed by washout and DNase I addition measured after 2 hrs by Hoechst 33342 staining based confocal microscopic analysis; format: cell-based
MDA-MB-231 [14] = assay: Downregulation of CTCF mRNA expression in human MDA-MB-231 cells at 0 to 1.5 uM measured after 48 hrs by qRT-PCR analysis; format: functional, cell-based; settings: dose 0-1.5 µM
MDA-MB-231 [15] = assay: Downregulation of c-MYC mRNA expression in human MDA-MB-231 cells at 0 to 1.5 uM measured after 48 hrs by qRT-PCR analysis; format: functional, cell-based; settings: dose 0-1.5 µM
[16] = target: Telomerase reverse transcriptase (Homo sapiens) (UniProt O14746); assay: Inhibition of telomerase activity in human MDA-MB-231 cells at >=1 uM incubated for 30 mins by SYBR Gold staining based TRAP assay; format: cell-based
MDA-MB-231 [17] = assay: Induction of senescence in human MDA-MB-231 cells at 0 to 1.5 uM measured after 48 hrs by SA-beta-gal assay; format: functional, cell-based; settings: dose 0-1.5 µM
MDA-MB-231 [18] = assay: Inhibition of hTERT expression in human MDA-MB-231 cells assessed as reduction in pink foci in nucleus at 0.5 uM incubated for 48 hrs in presence of TBHP at 200 uM by immunofluorescence analysis; format: functional, cell-based
MDA-MB-231 [19] = assay: Induction of mitochondrial dysfunction in human MDA-MB-231 cells assessed as downregulation of mitochondrial respiratory complex II-SDHB expression incubated for 48 hrs by Western blot analysis; format: functional, cell-based; settings: dose 0-1.5 µM
MDA-MB-231 [20] = assay: Disruption of energy metabolism in human MDA-MB-231 cells assessed as reduction in cellular energy production by measuring reduction in oxygen consumption rate at 1.5 uM measured after 2 hrs by Seahorse XF24 analyzer; format: functional, cell-based
MDA-MB-231 [21] = assay: Induction of ferroptosis in human MDA-MB-231 cells assessed as disruption of iron metabolism by measuring increase in bright yellow fluorescent spots measured after 48 hrs by FerroOrange/Hoechst 33342 staining based confocal microscopic analysis; format: functional, cell-based; settings: dose 0-1.5 µM
MDA-MB-231 [22] = assay: Induction of autophagy in human MDA-MB-231 cells assessed as upregulation of BNIP3L/Nix protein expression at 0 to 1.5 uM measured after 48 hrs by Western blot analysis; format: functional, cell-based; settings: dose 0-1.5 µM
MDA-MB-231 [23] = assay: Downregulation of LC3-I protein expression in human MDA-MB-231 cells at 0 to 1.5 uM measured after 48 hrs by Western blot analysis; format: functional, cell-based; settings: dose 0-1.5 µM
[24] = Upregulation of CCNB1 gene expression in human MDA-MB-231 cells assessed as fold change at 1 uM measured after 48 hrs by RNA-seq analysis relative to control; format: functional
[25] = Upregulation of TNFSF10 gene expression in human MDA-MB-231 cells assessed as fold change at 1 uM measured after 48 hrs by RNA-seq analysis relative to control; format: functional
[26] = Upregulation of PLK4 gene expression in human MDA-MB-231 cells assessed as fold change at 1 uM measured after 48 hrs by RNA-seq analysis relative to control; format: functional
[27] = Upregulation of TGFB3 gene expression in human MDA-MB-231 cells assessed as fold change at 1 uM measured after 48 hrs by RNA-seq analysis relative to control; format: functional
[28] = Upregulation of MAPK13 gene expression in human MDA-MB-231 cells assessed as fold change at 1 uM measured after 48 hrs by RNA-seq analysis relative to control; format: functional
[29] = Upregulation of CALML6 gene expression in human MDA-MB-231 cells assessed as fold change at 1 uM measured after 48 hrs by RNA-seq analysis relative to control; format: functional
[30] = Toxicity in female Balb/c nude mouse xenografted with human MDA-MB-231 cells assessed as signs of skin tear at 2 to 5 mg/kg, iv administered via tail vein every 2 days for 16 days; format: organism-based; settings: in vivo, 384 h, dose 2-5 mg/kg, time 16 day
[31] = Toxicity in female Balb/c nude mouse xenografted with human MDA-MB-231 cells assessed as signs of pain at 2 to 5 mg/kg, iv administered via tail vein every 2 days for 16 days; format: organism-based; settings: in vivo, 384 h, dose 2-5 mg/kg, time 16 day
MDA-MB-231 [32] = assay: Antitumor activity against human MDA-MB-231 cells xenografted in female Balb/c mouse assessed as reduction in tumor weight at 5 mg/kg, iv administered via tail vein every 2 days for 16 days relative to control; format: functional; parameters: scale not given: the % may be the effect or the level left; settings: time 16 day
MDA-MB-231 [33] = assay: Antitumor activity against human MDA-MB-231 cells xenografted in female Balb/c mouse assessed as inhibition of tumor cell proliferation at 5 mg/kg, iv administered via tail vein every 2 days for 16 days by TUNEL assay; format: functional, organism-based; settings: time 16.0 day
[34] = Toxicity in female Balb/c nude mouse xenografted with human MDA-MB-231 cells assessed as change in AST level at 2 to 5 mg/kg, iv administered via tail vein every 2 days for 16 days; format: organism-based; settings: in vivo, 384 h, dose 2-5 mg/kg, time 16 day
[35] = Toxicity in female Balb/c nude mouse xenografted with human MDA-MB-231 cells assessed as change in platelet count at 2 to 5 mg/kg, iv administered via tail vein every 2 days for 16 days; format: organism-based; settings: in vivo, 384 h, dose 2-5 mg/kg, time 16 day

Sequence of Telomerase reverse transcriptase (Homo sapiens) (O14746 whole entry): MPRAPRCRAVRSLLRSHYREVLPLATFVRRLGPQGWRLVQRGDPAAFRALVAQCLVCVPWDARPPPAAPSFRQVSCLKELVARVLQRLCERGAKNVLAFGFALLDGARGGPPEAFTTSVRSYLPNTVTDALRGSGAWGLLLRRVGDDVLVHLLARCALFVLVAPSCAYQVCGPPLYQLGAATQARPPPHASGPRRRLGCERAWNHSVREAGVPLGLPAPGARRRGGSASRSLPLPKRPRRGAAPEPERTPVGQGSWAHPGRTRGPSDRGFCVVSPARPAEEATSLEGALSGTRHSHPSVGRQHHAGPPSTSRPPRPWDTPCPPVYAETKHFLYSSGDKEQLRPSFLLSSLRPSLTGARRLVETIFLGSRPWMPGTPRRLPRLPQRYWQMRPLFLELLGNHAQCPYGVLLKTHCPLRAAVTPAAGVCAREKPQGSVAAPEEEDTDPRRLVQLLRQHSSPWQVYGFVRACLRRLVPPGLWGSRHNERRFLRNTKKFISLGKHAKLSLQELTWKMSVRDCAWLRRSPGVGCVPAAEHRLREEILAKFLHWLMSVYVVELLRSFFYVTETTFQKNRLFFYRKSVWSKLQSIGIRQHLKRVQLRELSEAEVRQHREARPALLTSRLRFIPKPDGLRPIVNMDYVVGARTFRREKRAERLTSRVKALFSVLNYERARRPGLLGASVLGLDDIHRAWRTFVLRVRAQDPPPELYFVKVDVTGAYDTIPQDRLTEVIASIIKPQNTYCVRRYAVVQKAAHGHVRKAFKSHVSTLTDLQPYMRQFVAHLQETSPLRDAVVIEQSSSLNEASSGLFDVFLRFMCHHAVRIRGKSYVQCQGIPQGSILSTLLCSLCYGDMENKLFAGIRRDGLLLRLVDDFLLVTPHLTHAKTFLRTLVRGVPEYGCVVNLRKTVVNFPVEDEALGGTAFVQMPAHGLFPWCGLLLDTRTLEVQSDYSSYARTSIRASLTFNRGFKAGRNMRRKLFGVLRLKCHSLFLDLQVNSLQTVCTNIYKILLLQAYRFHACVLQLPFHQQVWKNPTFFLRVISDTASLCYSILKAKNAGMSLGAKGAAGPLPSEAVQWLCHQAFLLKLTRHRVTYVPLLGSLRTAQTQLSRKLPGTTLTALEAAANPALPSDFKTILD

Structure (SMILES): C[n+]1c(/C=C/c2c[nH]c3ccccc23)cc(/C=C2\Sc3ccccc3N2CCCN2CCC(C(F)(F)F)CC2)c2ccccc21.[I-]
- deltaH (DNA [1]): -1.32 kcal/mol
- ΔTm (Quadruplex DNA [2]): 2.45 °C
- Kd (Quadruplex DNA [3]): 6.8 µM
- ΔTm (Quadruplex DNA [4]): 2.59 °C
- deltaH (Quadruplex DNA [5]): -2.44 kcal/mol
- deltaG (Quadruplex DNA [6]): -6.59 kcal/mol
- ΔTm (Homo sapiens): 8.82 °C
- Selectivity ratio [7]: 2
- Selectivity ratio [8]: 2
- Selectivity ratio [9]: 2
- Selectivity ratio [10]: 2
- Selectivity ratio [11]: 3
- Selectivity ratio [12]: 18
- Activity (DNA [13]): Active
- Activity (MDA-MB-231 [14]): inactive
- Activity (MDA-MB-231 [15]): inactive
- inhibition [16]: Active
- Activity (MDA-MB-231 [17]): Active
- inhibition (MDA-MB-231 [18]): Active
- Activity (MDA-MB-231 [19]): Dose-Dependent Effect
- Activity (MDA-MB-231 [20]): Active
- Activity (MDA-MB-231 [21]): Dose-Dependent Effect
- Activity (MDA-MB-231 [22]): Active
- Activity (MDA-MB-231 [23]): Active
- fold change (FC) [24]: >2
- fold change (FC) [25]: >2
- fold change (FC) [26]: >2
- fold change (FC) [27]: >2
- fold change (FC) [28]: >2
- fold change (FC) [29]: >2
- Activity [30]: Non-Toxic
- Activity [31]: Non-Toxic
- Activity (MDA-MB-231 [32]): 78.7%
- Activity (MDA-MB-231 [33]): Active
- Activity [34]: Non-Toxic
- Activity [35]: Non-Toxic
